Data from ChEMBL document CHEMBL1140625 (Bioorg Med Chem, 2007).
pIC50: −log10 of the molar value.

Target: Human immunodeficiency virus type 1 integrase (Human immunodeficiency virus 1, UniProt Q7ZJM1)
Assay: Inhibition of HIV1 integrase

Human immunodeficiency virus type 1 integrase, sequence (Q7ZJM1 whole entry): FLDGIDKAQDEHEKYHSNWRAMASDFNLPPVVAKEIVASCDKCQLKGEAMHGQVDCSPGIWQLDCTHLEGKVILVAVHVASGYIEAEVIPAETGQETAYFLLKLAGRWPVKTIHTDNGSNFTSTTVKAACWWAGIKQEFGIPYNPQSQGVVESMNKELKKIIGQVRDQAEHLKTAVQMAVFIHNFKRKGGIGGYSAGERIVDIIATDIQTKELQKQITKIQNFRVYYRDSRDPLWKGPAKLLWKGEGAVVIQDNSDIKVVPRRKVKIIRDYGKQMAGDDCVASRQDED

pIC50	Structure (SMILES)
> 6.00	O=C(/C=C(\O)c1nc[nH]n1)c1ccc(Cc2ccc(F)cc2)[nH]1
> 6.00	O=C(/C=C(\O)c1cc[nH]c1)c1ccc(Cc2ccc(F)cc2)o1
